According to article PMC11785708, “Design and synthesis of new quinazolinone derivatives: investigation of antimicrobial and biofilm inhibition effects” (Molecular Diversity, 2024):
Values after ≈ are worked out from the molar mass of the structure shown. Values joined by “and” are separate entries in the source; they are usually repeats but may differ in a detail not shown here. Equal entries are not always repeated.

Columns and labels:
B. subtilis ATCC 6633 [1] = assay: Agar well diffusion, B. subtilis; format: cell-based; conditions: Bacillus subtilis, ATCC6633; 100 μl of test compound 20 mg/ml in DMF; ciprofloxacin and fluconazole 30 μg/ml; 24 h; mean ± SD; read-out: diameters of inhibition zone, B. subtilis ATCC 6633
Experimental: (§1) The antimicrobial activity was tested against Gram positive bacteria: Bacillus cereus (B. cereus ATCC 6629), Bacillus subtilis (B. subtilis ATCC 6633), Staphylococcus aureus (S. aureus ATCC 6538), Gram negative bacteria: Klebsiella pneumoniae (K. pneumoniae ATCC 13883), Pseudomonas aeruginosa (P. aeruginosa ATCC 27953) and Candida albicans (C. albicans ATCC 10231). Glycerol stocks were thawed upon need and propagated into nutrient broth at 37 °C. The antibacterial activity of the compounds 9-32 was carried out in vitro using the agar well diffusion method, originally reported by […] and Bauer and coworkers and described by the National Committee for Clinical Laboratory Standards (NCCLS). Bacterial strains, adjusted at […] (equivalent to 0.5 McFarland), were used to inoculate nutrient agar plates. 9-mm diameter wells were punched into the solidified nutrient agar plates using sterile cork borer and 100 μl samples of the test compounds, dissolved in dimethyl formamide (DMF) at 20 mg/ml concentrations, were added and allowed to diffuse at 4 °C for 2 h. Subsequently, the plates were incubated overnight in an upright position at 37 °C. DMF was used as a negative control while ciprofloxacin and fluconazole (30 μg/ml) served as positive controls. After 24 h incubation, the diameters of the growth inhibition zones were recorded in mm. Data was expressed as mean ± standard deviation of three replicates.

B. cereus ATCC 6629 [2] = assay: Agar well diffusion, B. cereus; format: cell-based; conditions: Bacillus cereus, ATCC6629; 100 μl of test compound 20 mg/ml in DMF; ciprofloxacin and fluconazole 30 μg/ml; 24 h; mean ± SD; read-out: diameters of inhibition zone, B. cereus ATCC 6629
Experimental: as §1

K. pneumoniae ATCC 13883 [3] = assay: Agar well diffusion, K. pneumoniae; format: cell-based; conditions: Klebsiella pneumoniae, ATCC13883; 100 μl of test compound 20 mg/ml in DMF; ciprofloxacin and fluconazole 30 μg/ml; 24 h; mean ± SD; read-out: diameters of inhibition zone, K. pneumoniae ATCC 13883
Experimental: as §1

P. aeruginosa ATCC 27953 [4] = assay: Agar well diffusion, P. aeruginosa; format: cell-based; conditions: Pseudomonas aeruginosa, ATCC27953; 100 μl of test compound 20 mg/ml in DMF; ciprofloxacin and fluconazole 30 μg/ml; 24 h; mean ± SD; read-out: diameters of inhibition zone, P. aeruginosa ATCC 27953
Experimental: as §1

B. subtilis ATCC 6633 [5] = assay: MIC determination, B. subtilis; format: cell-based, Bacillus subtilis; conditions: Bacillus subtilis, ATCC6633; serial dilutions, triplicate
Experimental: (§2) Serial dilutions of the test compounds were tested to determine their MIC against the most susceptible organisms. The MIC was expressed as the lowest concentration which inhibited the visible growth of the corresponding microorganism. All assays were performed in triplicate.

B. cereus ATCC 6629 [6] = assay: MIC determination, B. cereus; format: cell-based, Bacillus cereus; conditions: Bacillus cereus, ATCC6629; serial dilutions, triplicate
Experimental: as §2

K. pneumoniae ATCC 13883 [7] = assay: MIC determination, K. pneumoniae; format: cell-based, Klebsiella pneumoniae; conditions: Klebsiella pneumoniae, ATCC13883; serial dilutions, triplicate
Experimental: as §2

P. aeruginosa ATCC 27953 [8] = assay: MIC determination, P. aeruginosa; format: cell-based, Pseudomonas aeruginosa; conditions: serial dilutions, triplicate; for MIC: Pseudomonas aeruginosa, ATCC27953
Experimental: as §2

Cell viability MTT assay = format: cell-based; conditions: human, BJ1 cells (normal skin fibroblasts)
Experimental: Cell viability testing at 5 mg/ml was carried out by colorimetric MTT assay on human normal cell line BJ1 (skin fibroblasts) to investigate the toxicity of the most broad spectrum derivatives 9, 15, 16, 18, 19, 20 and 29 (Table 3). The viability of the cells treated with the aforementioned derivatives was more than 87% at 5 mg/ml concentration. This gives indication that the compounds are tolerated and nontoxic for human cells, as the cytotoxic dose was higher than the therapeutic dose on most of microorganisms. It is worth mentioning that the safe limit of the percent of dead cells is not an absolute value and could be more than 10% as reported in previous studies.
The most broad spectrum compounds were evaluated for their cytotoxic activity against BJ1 cell line using colorimetric MTT [3-(4,5-dimethylthiazol-2-yl)-2,5-diphenyltetrazolium bromide] assay.

P. aeruginosa ATCC 27953 [9] = assay: Biofilm inhibition assay (crystal violet); format: cell-based; conditions: Pseudomonas aeruginosa, ATCC27953, P. aeruginosa ATCC 27953, 24 h
Experimental: Compounds with potential activity against P. aeruginosa ATCC 27953 were tested for the respective biofilm inhibition. The assay was carried out in microtiter plate setup using crystal violet (CV) staining of adherent cells, as modified from.
After 24 h cultivation, the supernatant and planktonic cells were discarded, wells were washed with phosphate buffered saline (PBS) and biofilms were stained with 0.1% CV. CV was subsequently washed then, solubilized with 33% (v/v) glacial acetic acid. The absorbance was measured at 540 nm using SPECTROstar® Nano microplate reader (BMG LABTECH GmbH, Germany). The experiments were performed in triplicate and independently repeated three times. GraphPad Prism 6.0 software was used to estimate the IC50 values, which correspond to […].

P. aeruginosa ATCC 27953 [10] = assay: Bacterial cell surface hydrophobicity (CSH) assay (MATH / BATH); format: cell-based, Pseudomonas aeruginosa; conditions: increasing concentrations, toluene partition (Fig. 6)
Experimental: The effect of the test compounds 19 and 20 on cell surface hydrophobicity was investigated via the microbial or bacterial adherence to hydrocarbons (MATH / BATH) assay. Exponentially growing culture of P. aeruginosa ATCC 27953 incubated with or without test compounds were centrifuged, the pellets were re-suspended and OD600 was measured using UV/Vis spectrophotometer (Jasco V-630, Tokyo, Japan) to give Ao. The re-suspended cells were vigorously mixed with toluene followed by measuring the OD600 of the aqueous phase to give At. The hydrophobicity index was calculated as follows: Hydrophobicityindex=Ao-At/Ao×100

P. aeruginosa ATCC 27953 [11] = assay: Inhibition of exopolysaccharide (EPS) production; format: cell-based, Pseudomonas aeruginosa; conditions: means ± standard errors
Experimental: The inhibition of exopolysaccharide production by P. aeruginosa ATCC 27953 using quinazolinone derivatives was assessed according to total carbohydrate measurement.
P. aeruginosa’s biofilm was grown in the presence or absence of compounds (19, 20). Cells were incubated for 1 h with an equal volume of 5% (v/v) phenol and 5 × volume of concentrated sulfuric acid containing 0.2% (w/v) hydrazine sulphate then centrifuged at 10,000 g for 10 min (Z 326 K, HERMLE Labortechnik GmbH, Wehingen, Germany). The optical density of the supernatant was measured at 490 nm and the reduction in EPS was calculated as follows: EPSquantification%=OD490ofcontrol-OD490oftest/OD490ofcontrol×100

[12] = tested on: Pseudomonas aeruginosa ATCC 27953; assay: Twitching motility assay; format: cell-based; conditions: highest tested concentration (= MIC)
Experimental: 5 µL of overnight-grown bacteria were stab-inoculated into Luria Bertani (LB) soft or quasi-solid plates containing 0.3% agar mixed with different concentrations of compounds 19, 20 and further incubated overnight in an upright position. The visible detectable distance of corrugated trails of twitching zones, away from the inoculation center at the petri dish-agar interface, was measured afterwards. The results were recorded as the average of several diameters’ measurements. DMF was used as a negative control. The experiments were performed in triplicate and represented as the mean of three measurements.

S. aureus ATCC 6538 [13] = assay: Agar well diffusion, S. aureus; format: cell-based; conditions: Staphylococcus aureus, ATCC6538; 100 μl of test compound 20 mg/ml in DMF; ciprofloxacin and fluconazole 30 μg/ml; 24 h; mean ± SD; read-out: diameters of inhibition zone, S. aureus ATCC 6538
Experimental: as §1

C. albicans ATCC 10231 [14] = assay: Agar well diffusion, C. albicans; format: cell-based; conditions: Candida albicans, ATCC10231; 100 μl of test compound 20 mg/ml in DMF; ciprofloxacin and fluconazole 30 μg/ml; 24 h; mean ± SD; read-out: diameters of inhibition zone, C. albicans ATCC 10231
Experimental: as §1

S. aureus ATCC 6538 [15] = assay: MIC determination, S. aureus; format: cell-based, Staphylococcus aureus; conditions: serial dilutions, triplicate; for MIC: Staphylococcus aureus, ATCC6538
Experimental: as §2

C. albicans ATCC 10231 [16] = assay: MIC determination, C. albicans; format: cell-based, Candida albicans; conditions: Candida albicans, ATCC10231; serial dilutions, triplicate
Experimental: as §2

MIC (B. cereus ATCC 6629 [6]) [µg/mL] | melting point [°C] | MIC (S. aureus ATCC 6538 [15]) [µg/mL] | MIC (C. albicans ATCC 10231 [16]) [µg/mL] | SMILES | zone of inhibition at 20000 µg/mL (B. subtilis ATCC 6633 [1]) [mm] | zone of inhibition at 20000 µg/mL (B. cereus ATCC 6629 [2]) [mm] | zone of inhibition at 20000 µg/mL (K. pneumoniae ATCC 13883 [3]) [mm] | zone of inhibition at 20000 µg/mL (P. aeruginosa ATCC 27953 [4]) [mm] | MIC (B. subtilis ATCC 6633 [5]) [µg/mL] | MIC (K. pneumoniae ATCC 13883 [7]) [µg/mL] | MIC (P. aeruginosa ATCC 27953 [8]) [µg/mL] | viability at 5 mg/ml (Cell viability MTT assay) [%] | zone of inhibition at 20000 µg/mL (S. aureus ATCC 6538 [13]) [mm] | zone of inhibition at 20000 µg/mL (C. albicans ATCC 10231 [14]) [mm] | also measured
2000 ± 140 (≈ 5.45 mM) | 138 | 500 (≈ 1.36 mM) | 10000 ± 500 (≈ 27.3 mM) | O=c1c2ccccc2nc(CN2CCCC2)n1N=Cc1ccc(Cl)cc1 [Compound 16, 3-[(4-Chlorobenzylidene)amino]-2-(pyrrolidin-1-ylmethyl).quinazolin-4(3H)-one] | – | 13 ± 0.14 | – | 17 ± 0.26 | – | – | 1500 (≈ 4.09 mM) | 93.5 ± 1.54 | 12 ± 0.08 | 13 ± 0.29 | MIC, S. aureus ATCC 6538 (S. aureus ATCC 6538 [15]): 500 ± 0 µg/mL (≈ 1.36 mM)
2500 ± 290 (≈ 6.9 mM) | 118 to 120 | 2500 (≈ 6.9 mM) | 10000 ± 290 (≈ 27.6 mM) | COc1ccc(C=Nn2c(CN3CCCC3)nc3ccccc3c2=O)cc1 [Compound 18, 3-[(4-Methoxybenzylidene)amino]-2-(pyrrolidin-1-ylmethyl)quinazolin-4(3H)-one] | 16 ± 0.31 | 17 ± 0.3 | 18 ± 0.2 | – | 1500 ± 290 (≈ 4.14 mM) | 2000 (≈ 5.52 mM) | – | 87.2 ± 2.34 | 14 ± 0.21 | 13 ± 0.14 | –

SMILES | MIC (B. cereus ATCC 6629 [6]) [µg/mL] | melting point [°C] | MIC (S. aureus ATCC 6538 [15]) [µg/mL] | MIC (C. albicans ATCC 10231 [16]) [µg/mL] | zone of inhibition at 20000 µg/mL (B. subtilis ATCC 6633 [1]) [mm] | zone of inhibition at 20000 µg/mL (B. cereus ATCC 6629 [2]) [mm] | zone of inhibition at 20000 µg/mL (K. pneumoniae ATCC 13883 [3]) [mm] | zone of inhibition at 20000 µg/mL (P. aeruginosa ATCC 27953 [4]) [mm] | MIC (B. subtilis ATCC 6633 [5]) [µg/mL] | MIC (K. pneumoniae ATCC 13883 [7]) [µg/mL] | MIC (P. aeruginosa ATCC 27953 [8]) [µg/mL] | viability at 5 mg/ml (Cell viability MTT assay) [%] | zone of inhibition at 20000 µg/mL (S. aureus ATCC 6538 [13]) [mm] | zone of inhibition at 20000 µg/mL (C. albicans ATCC 10231 [14]) [mm] | also measured
COc1cc(C=Nn2c(CN3CCCC3)nc3ccccc3c2=O)cc(OC)c1OC [Compound 19, 2-(Pyrrolidin-1-ylmethyl)-3-[(3,4,5-trimethoxybenzylidene)amino]quinazolin-4(3H)-one] | 10000 ± 500 (≈ 23.7 mM) | 166 | – | – | 14 ± 0.31 | 17 ± 0.22 | 18 ± 0.24 | 16 ± 0.18 | 1000 ± 290 (≈ 2.37 mM) | 1000 ± 290 (≈ 2.37 mM) | 150 (≈ 0.355 mM) | 92.3 ± 3.37 | – | – | MIC, P. aeruginosa ATCC 27953 (P. aeruginosa ATCC 27953 [8]): 150 ± 60 µg/mL (≈ 0.355 mM); IC50 (P. aeruginosa ATCC 27953 [9]): 3.55 µM and 1.5 µg/mL; effect on hydrophobicity index (CSH) (P. aeruginosa ATCC 27953 [10]): no evident effect on CSH; % EPS inhibition (P. aeruginosa ATCC 27953 [11]; 1/4 MIC): 54.15 ± 4.00%; % EPS inhibition (P. aeruginosa ATCC 27953 [11]; 1 MIC): 55.93 ± 3.31%; % EPS inhibition (P. aeruginosa ATCC 27953 [11]; 2 MIC): 63.79 ± 2.70%; change in twitching zone diameter [12]: 30%
